Measured values taken from article PMC11083148, “Structure–Activity Relationship Studies on Highly Functionalized Pyrazole Hydrazones and Amides as Antiproliferative and Antioxidant Agents” (International Journal of Molecular Sciences, 2024).

How the values were obtained:
Type in all cases: cell-based
[1] = tested on: A549; assay: MTT assay, antiproliferative activity; settings: Homo sapiens, 48h, read-out: Mean Growth Percentage
In short: (§1)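 Cells plated 16 h, then exposed to compounds at 10 μM final for 48 h at 37 °C, 5% CO2. MTT added for 4 h, formazan dissolved in DMSO, absorbance read at 570 nm; values as percent of DMSO-only control, mean of three experiments in six replicates.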

[2] = tested on: Hep-G2; assay: MTT assay, antiproliferative activity; settings: Homo sapiens, HepG2, 48h
In short: as §1

[3] = tested on: MDA-MB231; assay: MTT assay, antiproliferative activity; settings: Homo sapiens, MDA-MB-231, 48h
In short: as §1

[4] = tested on: SK-BR3; assay: MTT assay, antiproliferative activity; settings: Homo sapiens, SK-BR-3, 48h
In short: as §1

[5] = tested on: HeLa; assay: MTT assay, antiproliferative activity; settings: Homo sapiens; for activity at 10 µM: 48h, read-out: Mean Growth Percentage
[6] = tested on: MCF7; assay: MTT assay, antiproliferative activity; settings: Homo sapiens; for mean growth percentage (cell growth remaining vs control) at 10 µM: 48h
[7] = tested on: SKMEL28; assay: MTT assay, antiproliferative activity; settings: Homo sapiens; for Mean growth percentage at 10 µM: SK-MEL-28, 10 µM, 48h
[8] = tested on: SKOV3; assay: MTT assay, antiproliferative activity; settings: Homo sapiens; for Mean growth percentage at 10 µM: SK-OV-3, 10 µM, 48h
[9] = tested on: GM-6114; assay: MTT assay, cytotoxicity on normal fibroblasts; settings: human, 48 h, 10 µM
Protocol: Pyrazole acylhydrazones 10–13 and amides 14–22 were tested by MTT assay to evaluate their antiproliferative and cytotoxicity properties against a panel of eight tumor cell lines and normal fibroblasts.
The following cell lines were used for MTT assays: SKOV-3 (ovarian adenocarcinoma, ATCC, Manassas, VA, USA); MCF-7 (breast adenocarcinoma, Biologic Bank and Cell Factory, IRCCS Policlinico San Martino, Genoa, Italy); Hep-G2 (hepatocellular carcinoma, ATCC, Manassas, VA, USA); SK-MEL28 (skin melanoma, Biologic Bank and Cell Factory, IRCCS Policlinico San Martino, Genoa, Italy), GM-6114 (embryonic human fibroblast, ATCC, Manassas, VA, USA); MDA-MB231 (breast adenocarcinoma, Biologic Bank and Cell Factory, IRCCS Policlinico San Martino, Genoa, Italy); HeLa (cervical adenocarcinoma, Biologic Bank and Cell Factory, IRCCS Policlinico San Martino, Genoa, Italy); SK-BR3 (breast andenocarcinoma, Biologic Bank and Cell Factory, IRCCS Policlinico San Martino, Genoa, Italy); A549 (lung carcinoma, Biologic Bank and Cell Factory, IRCCS Policlinico San Martino, Genoa, Italy); HUVEC (Human Umbilical Vein Endothelial Cells, ATCC, Manassas, VA, USA). All cell lines were grown in their medium with 10% FBS, 2 mM Glutamine, and 1% penstrep and incubated at 37 °C in 5% CO2 in a humidified environment. The cell lines were plated in 96-well plates at an adequate number to reach 80–90% confluence at the end of the assay. 16 h after cell plating, a 10 mM DMSO stock solution of the compounds was diluted in growth medium and added at a final working concentration of 10 μM. After 48h of incubation, a 2 mg/mL PBS solution of MTT (3-(4,5-dimethyl-2-thiazolyl)-2,5-diphenyl-2H-tetrazolium bromide) was added (30 μL/well). After 4h, the supernatant was removed, and the Formazan precipitates were dissolved in DMSO (100 μL/well). The 96-well plates were incubated for 20 min, and absorbance was measured at 570 nm using a plate reader. The results are expressed as a percentage ratio over control samples (100%) in which the cells were incubated with the same amount of DMSO but without compounds. Each value is the mean of three independent experiments run in six replicates.

[10] = tested on: CCRF-CEM; assay: NCI screening, Leukemia; settings: 10 µM
Protocol: (§2) In addition, 11a and 17 (representative compounds of the acylhydrazone and amide series) were selected by the National Cancer Institute (NCI, Germantown, MD, USA) and tested at a fixed concentration of 10 µM against a panel of fifty-nine different cancer cell lines, including highly metastatic tumors (Table 2).

[11] = tested on: MOLT-4; assay: NCI screening, Leukemia; settings: MOLT-4, Leukemia; 10 µM
Protocol: as §2

[12] = tested on: RPMI-8226; assay: NCI screening, Leukemia; settings: RPMI-8226, Leukemia; 10 µM
Protocol: as §2

[13] = tested on: SF-268; assay: NCI screening, CNS Cancer; settings: SF-268, CNS Cancer; 10 µM
Protocol: as §2

[14] = tested on: SF-295; assay: NCI screening, CNS Cancer; settings: SF-295, CNS Cancer; 10 µM
Protocol: as §2

[15] = tested on: SF-539; assay: NCI screening, CNS Cancer; settings: SF-539, CNS Cancer; 10 µM
Protocol: as §2

[16] = tested on: SNB-19; assay: NCI screening, CNS Cancer; settings: SNB-19, CNS Cancer; 10 µM
Protocol: as §2

[17] = tested on: SNB-75; assay: NCI screening, CNS Cancer; settings: SNB-75, CNS Cancer; 10 µM
Protocol: as §2

[18] = tested on: U251; assay: NCI screening, CNS Cancer; settings: 10 µM
Protocol: as §2

[19] = tested on: IGROV1; assay: NCI screening, Ovarian Cancer; settings: 10 µM
Protocol: as §2

[20] = tested on: NCI/ADR-RES; assay: NCI screening, Ovarian Cancer; settings: 10 µM
Protocol: as §2

[21] = tested on: OVCAR-4; assay: NCI screening, Ovarian Cancer; settings: OVCAR-4, Ovarian Cancer; 10 µM
Protocol: as §2

[22] = tested on: OVCAR-5; assay: NCI screening, Ovarian Cancer; settings: OVCAR-5, Ovarian Cancer; 10 µM
Protocol: as §2

[23] = tested on: OVCAR-8; assay: NCI screening, Ovarian Cancer; settings: OVCAR-8, Ovarian Cancer; 10 µM
Protocol: as §2

[24] = tested on: SK-OV-3; assay: NCI screening, Ovarian Cancer; settings: SK-OV-3, Ovarian Cancer; 10 µM
Protocol: as §2

[25] = tested on: DU-145; assay: NCI screening, Prostate Cancer; settings: DU-145, Prostate Cancer; 10 µM
Protocol: as §2

[26] = tested on: PC-3; assay: NCI screening, Prostate Cancer; settings: PC-3, Prostate Cancer; 10 µM
Protocol: as §2

[27] = tested on: BT-549; assay: NCI screening, Breast Cancer; settings: BT-549, Breast Cancer; 10 µM
Protocol: as §2

[28] = tested on: MDA-MB-231/ATCC; assay: NCI screening, Breast Cancer; settings: 10 µM
Protocol: as §2

[29] = tested on: T-47D; assay: NCI screening, Breast Cancer; settings: 10 µM
Protocol: as §2

SMILES	activity at 10 µM [1]	Mean growth percentage at 10 µM [2]	Mean growth percentage at 10 µM [3]	Mean growth percentage at 10 µM [4]	activity at 10 µM [5]	mean growth percentage (cell growth remaining vs control) at 10 µM [6]	Mean growth percentage at 10 µM [7]	Mean growth percentage at 10 µM [8]	Mean Growth Percentage [9]	Growth Percentage (%) [10]	Growth Percentage (%) [11]	Growth Percentage (%) [12]	Growth Percentage (%) [13]	Growth Percentage (%) [14]	Growth Percentage (%) [15]	Growth Percentage (%) [16]	Growth Percentage (%) [17]	Growth Percentage (%) [18]	Growth Percentage (%) [19]	Growth Percentage (%) [20]	further results
COc1ccc(/C=N/NC(=O)c2c(N)nn(C)c2Nc2ccccc2)cc1 [11a, (E)-3-amino-N′-(4-methoxybenzylidene)-1-methyl-5-(phenylamino)-1H-pyrazole-4-carbohydrazide]	60.8%	75%	72%	57%	25%	33.6%	49.4%	43.6%	69.81%	38.45%	49.41%	61.65%	58.65%	98.52%	40.20%	36.78%	35.14%	33.33%	39.64%	32.98%	IC50 ([5]; MTT): 4.63 ± 0.41 µM; IC50 ([6]; MTT): 6.9 ± 0.34 µM; IC50 ([7]; SK-MEL-28, MTT): 9.45 ± 0.66 µM; IC50 ([8]; SK-OV-3, MTT): 6.88 ± 0.23 µM; Growth Percentage (%) [21]: 87.03%; Growth Percentage (%) [22]: 76.88%; Growth Percentage (%) [23]: 70.80%; Growth Percentage (%) [24]: 49.64%; Growth Percentage (%) [25]: 76.34%; Growth Percentage (%) [26]: 55.90%; Growth Percentage (%) [27]: 14.04%; Growth Percentage (%) [28]: 65.06%; Growth Percentage (%) [29]: 42.38%
CCOC(=O)c1c(NC(=O)C2CC2)nn(C)c1Nc1ccccc1 [compound 17, Ethyl 3-(cyclopropanecarboxamido)-1-methyl-5-(phenylamino)-1H-pyrazole-4-carboxylate]	75.8%	103%	127%	106%	109%	92.8%	85.9%	86.9%	65.92%	97.75%	101.92%	99.62%	101.17%	102.51%	97.42%	98.39%	94.70%	100.80%	100.75%	103.29%	Growth Percentage (%) [21]: 99.35%; Growth Percentage (%) [22]: 99.49%; Growth Percentage (%) [23]: 101.92%; Growth Percentage (%) [24]: 99.73%; Growth Percentage (%) [25]: 104.67%; Growth Percentage (%) [26]: 95.84%; Growth Percentage (%) [27]: 118.46%; Growth Percentage (%) [28]: 100.37%; Growth Percentage (%) [29]: 93.07%
